“Also recorded” adds a separate entry of the source.
Columns and labels:
[1] = test system: insulin-degrading enzyme (IDE), His-Tag, rat, recombinant; experiment: IDE (135 nM) in PBS (pH 7.4); details: 37 °C, up to 180 min
[2] = target: T1, IDE, His-Tag, rat, recombinant (Rattus norvegicus, UniProt P35559); experiment: HPLC-MS enzymatic assay: degradation of NPFF and NPAF by IDE; type: in vitro ADME; details: PBS pH 7.4, 37 °C, LC-ESI/MS; for cleavage of the peptide by IDE: stability with named protease IDE (135 nM), peptide 20 μM, aliquots 0-180 min, stopped with 1% TFA, repeated three times
T1 construct: His-Tag; purchased Sigma Aldrich; host or cells: Spodoptera frugiperda
T1 sequence (P35559 1-1019): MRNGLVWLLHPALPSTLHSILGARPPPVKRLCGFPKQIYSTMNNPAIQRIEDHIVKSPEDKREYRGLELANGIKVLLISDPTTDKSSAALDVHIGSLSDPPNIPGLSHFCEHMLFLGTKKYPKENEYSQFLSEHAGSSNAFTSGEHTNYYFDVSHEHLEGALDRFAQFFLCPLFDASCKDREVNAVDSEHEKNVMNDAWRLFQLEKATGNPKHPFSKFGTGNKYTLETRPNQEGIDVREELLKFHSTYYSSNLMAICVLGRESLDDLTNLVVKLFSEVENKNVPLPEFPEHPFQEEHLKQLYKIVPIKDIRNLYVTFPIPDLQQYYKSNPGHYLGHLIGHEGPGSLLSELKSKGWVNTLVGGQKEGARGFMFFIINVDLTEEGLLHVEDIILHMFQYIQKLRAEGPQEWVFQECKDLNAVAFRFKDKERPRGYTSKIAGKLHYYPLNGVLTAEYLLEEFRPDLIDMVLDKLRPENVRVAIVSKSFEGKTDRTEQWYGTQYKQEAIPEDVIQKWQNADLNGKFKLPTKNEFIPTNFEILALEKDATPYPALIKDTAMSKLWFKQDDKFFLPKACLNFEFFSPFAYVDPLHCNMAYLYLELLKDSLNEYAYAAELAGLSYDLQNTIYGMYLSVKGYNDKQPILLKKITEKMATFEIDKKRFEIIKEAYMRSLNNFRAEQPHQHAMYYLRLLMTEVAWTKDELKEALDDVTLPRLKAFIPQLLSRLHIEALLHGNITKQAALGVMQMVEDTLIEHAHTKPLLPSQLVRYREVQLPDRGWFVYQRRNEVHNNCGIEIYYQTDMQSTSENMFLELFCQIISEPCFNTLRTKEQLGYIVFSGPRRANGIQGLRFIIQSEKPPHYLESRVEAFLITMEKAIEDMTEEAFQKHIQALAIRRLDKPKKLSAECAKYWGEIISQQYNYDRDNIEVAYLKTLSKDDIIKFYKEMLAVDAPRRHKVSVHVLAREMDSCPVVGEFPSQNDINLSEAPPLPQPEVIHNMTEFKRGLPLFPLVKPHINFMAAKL
Experimental: IDE, His-Tag, rat, recombinant, Spodoptera frugiperda, were purchased from Sigma Aldrich. […] Peptides were purified by the high-performance liquid chromatography (HPLC) and tested for their purity using ESI MS. Purity was above 95%. […] The liquid chromatography-electrospray ionisation mass spectrometry (LC-ESI/MS) experiments were carried out by using a LCQ Deca XP instrument (Thermo Electron Corporation, USA). All solutions were incubated in PBS (pH 7.4) at 37 °C. […] Samples were kept at 4 °C before HPLC-MS analysis. […] Separation of the generated fragments was carried out by the reversed-phase chromatography using a Jupiter® 5 µm C4 300 Å (LC Column 150 × 4.6 mm) column from Phenomenex at the flow rate of 250 μl/min. MS-MS experiments were used for final identification of the peptide fragments. All methodological details and a semiquantitative method were already described in our previous work, and the absolute intensities of the peaks were normalised to the total ion current[18]^,[24]^,[25]. The experiments were repeated three times to ensure reproducibility and estimate the error bars on the HPLC-MS results.

[3] = target: T1, IDE, His-Tag, rat, recombinant; experiment: Insulin degradation by IDE in the presence of NPAF/NPFF (HPLC-MS); type: biochemical; details: PBS pH 7.4, 37 °C, LC-ESI/MS; for effect on insulin degradation by IDE after 3 h pre-incubation of the neuropeptide with IDE (NP fragments): NP 20 μM incubated 3 h with IDE 135 nM, then insulin 10 μM added, data not shown
Experimental: IDE, His-Tag, rat, recombinant, Spodoptera frugiperda, were purchased from Sigma Aldrich. NPAF, NPFF were manually synthesised by the solid-phase method using Fmoc chemistry. Peptides were purified by the high-performance liquid chromatography (HPLC) and tested for their purity using ESI MS. […] The liquid chromatography-electrospray ionisation mass spectrometry (LC-ESI/MS) experiments were carried out by using a LCQ Deca XP instrument (Thermo Electron Corporation, USA). All solutions were incubated in PBS (pH 7.4) at 37 °C. After incubations, sample aliquots at time 0; 10; 30; 45; 60 and 180 min were taken and a 10% solution of TFA was added to the aliquots in order to achieve a final TFA concentration of 1% in all the samples to stop the enzymatic reaction. Samples were kept at 4 °C before HPLC-MS analysis. […] Separation of the generated fragments was carried out by the reversed-phase chromatography using a Jupiter® 5 µm C4 300 Å (LC Column 150 × 4.6 mm) column from Phenomenex at the flow rate of 250 μl/min. MS-MS experiments were used for final identification of the peptide fragments. All methodological details and a semiquantitative method were already described in our previous work, and the absolute intensities of the peaks were normalised to the total ion current[18]^,[24]^,[25]. The experiments were repeated three times to ensure reproducibility and estimate the error bars on the HPLC-MS results.

| Substance | cleaved bond [1] | cleavage of the peptide by IDE [2] | effect on insulin degradation by IDE after 3 h pre-incubation of the neuropeptide with IDE (NP fragments) [3] | also measured |
| --- | --- | --- | --- | --- |
| HAla-Gly-Glu-Gly-Leu-Ser-Ser-Pro-Phe-Trp-Ser-Leu-Ala-Ala-Pro-Gln-Arg-PheOH | Gly-Glu; also recorded: Ser-Leu, major, 10 min; also recorded: Leu-Ala, major, 10 min; also recorded: Gln-Arg, major, 10 min |  |  |  |
| HAla-Gly-Glu-Gly-Leu-Ser-Ser-Pro-Phe-Trp-Ser-Leu-Ala-Ala-Pro-Gln-Arg-PheOH [NPAF, neuropeptide generated from the NPFF precursor (pro-NPFF(A)), manually synthesised by Fmoc solid-phase method] |  | able to cleave | no activation effect | effect of the neuropeptide on insulin degradation by IDE (insulin molecular peak decrease) ([3]; NP 20 μM co-incubated with insulin 10 μM and IDE 135 nM, performed three times): activating effect |
| HPhe-Leu-Phe-Gln-Pro-Gln-Arg-PheOH [NPFF, neuropeptide generated from the NPFF precursor (pro-NPFF(A)), manually synthesised by Fmoc solid-phase method] |  | able to cleave | no activation effect |  |
| HPhe-Leu-Phe-Gln-Pro-Gln-Arg-PheOH | Gln-Arg, major, 10 min |  |  |  |
| HAla-Gly-Glu-Gly-Leu-Ser-Ser-Pro-Phe-Trp-Ser-Leu-Ala-Ala-Pro-GlnOH [cryptic peptide at 1617.8 m/z, cryptic peptide formed from NPAF by IDE, detected at m/z 1617.8] |  |  |  | incubation time at which the relative intensity of the cryptic peptide reaches a maximum ([2]; NPAF 20 μM with IDE 135 nM, intensities normalised to total ion current, abundance diminishes afterwards): about 30 min |
